Experimental data published in paper PMC10778626, “Efficacy of Novel Quaternary Ammonium and Phosphonium Salts Differing in Cation Type and Alkyl Chain Length against Antibiotic-Resistant Staphylococcus aureus” (International Journal of Molecular Sciences, 2023).

Tests used:
[1] = set-up: method as in earlier work; conditions: standard mixture for the calibration line; cited from earlier work
S. aureus CECT 976 = assay: MIC/MBC by broth microdilution, S. aureus CECT 976; type: cell-based; conditions: Staphylococcus aureus, CECT976, S. aureus CECT 976, broth microdilution; for MIC: 24 h, 37 °C, read-out: MIC; for MBC: plated on PCA, read-out: MBC
Procedure: The minimum inhibitory concentration (MIC) and minimum bactericidal concentration (MBC) values of all QHSs were determined by the broth microdilution method, according to the approved M7-A7 (aerobes) standards of the Clinical and Laboratory Standards Institute (CLSI) guidelines. Overnight cell cultures of S. aureus, in the exponential phase of growth, were adjusted to an optical density (OD) of 0.132 ± 0.02 (λ = 600 nm). Then, a volume of 180 µL of the cell suspension was added to sterile, flat, clear-bottomed polystyrene (PS) 96-well microtiter plates (VWR—Radnor, PA, USA), already containing 20 µL of each QHS under study at concentrations ranging from 0.0625 to 64 µg/mL. In the end, the volume of each compound never exceeded 10% (v/v) of the well volume. Microtiter plates were then incubated for 24 h at 37 °C under agitation (150 rpm; INCU-Line IL 150R incubator). Absorbance measurements were performed at the beginning (t = 0 h) and end (t = 24 h) of the incubation period using a microtiter plate absorbance reader (BMG LABTECH FLUOstar Omega). Bacterial suspensions with DMSO and without QHSs were used as negative controls. […] All tests were performed with six replicates and a minimum of three independent repeats.
Plates were incubated at 37 °C for 24 h, and growth was visually inspected. […] All tests were performed in triplicate, and with a minimum of three independent repeats.

[2] = Chromatographic hydrophobicity index (CHI) by UHPLC; type: physicochemical; conditions: for CHI: LC/UV at pH 2.6, calculated from retention time with the calibration line; for chromatographic logP: back-calculated from CHI at pH 2.6: CHI LogP = 0.047 × CHI + 0.36 × HBC − 1.10
Procedure: The chromatographic hydrophobicity index (CHI) values were determined using the retention times (tR) of the samples under study and of a mixture of standard compounds on a UHPLC NEXERA SERIES LC-40 with a Luna C18 (2) column of 150 × 4.6 mm, 5 μm (Phenomenex, Torrance, CA, USA). Stock solutions of the test compounds (10 mM) were prepared in dimethyl sulfoxide (DMSO, 99.9%; Carlo Erba) and diluted in acetonitrile/water (1:1) to obtain a final concentration of 500 μM. The mobile phase A was 1.0% (v/v) aqueous acetic acid solution (pH = 2.6), and the mobile phase B was acetonitrile. The following gradient programme was applied: 1–7 min 0–100% B, 7–17 min 100% B, 17–19 min 100–0% B, 1 mL/min flow; rt, injection volume 40 μL.
A calibration line was obtained using a mixture of the following compounds: benzimidazole, theophylline, paracetamol, caffeine, colchicine, carbamazepine, indole, propiophenone, butyrophenone, valerophenone, and heptanophenone (Table S1 and Figure S50, Supplementary Materials). The experimental CHI values of the compounds tested at pH 2.6 were then converted to the logarithm of octanol/water partition coefficient (CHI LogP) values using Equation (1). CHI LogP = 0.047 × CHI + 0.36 × HBC − 1.10 (1) where HBC is the hydrogen bond donor count.

MIC (S. aureus CECT 976)	CHI [2]	chromatographic logP [2]	SMILES	CHI0 pH 2.6 [1]	MBC (S. aureus CECT 976)
–	–	–	c1ccc2[nH]cnc2c1 [Benzimidazole]	6.300	–
–	–	–	CCCC(=O)c1ccccc1 [Butyrophenone]	87.30	–
–	–	–	Cn1c(=O)c2c(ncn2C)n(C)c1=O [Caffeine]	23.41	–
–	–	–	NC(=O)N1c2ccccc2C=Cc2ccccc21 [Carbamazepine]	60.42	–
–	–	–	COc1cc2c(c(OC)c1OC)-c1ccc(OC)c(=O)cc1[C@@H](NC(C)=O)CC2 [Colchicine]	43.90	–
16 µg/mL	112.9	4.21	CCCCCCCCCCCCCCCCCC[n+]1cccc2ccccc21.[Br-] [Compound 5g, 1-Octadecylquinolin-1-ium bromide]	–	16 µg/mL
> 64 µg/mL	27.07	0.172	CCCCCC[n+]1ccccc1.[Br-] [Compound 6a, 1-Hexylpyridin-1-ium bromide]	–	> 64 µg/mL
> 64 µg/mL	40.78	0.817	CCCCCCCC[n+]1ccccc1.[Br-] [Compound 6b, 1-Octylpyridin-1-ium bromide]	–	> 64 µg/mL
32 µg/mL	53.07	1.4	CCCCCCCCCC[n+]1ccccc1.[Br-] [Compound 6c, 1-Decylpyridin-1-ium bromide]	–	> 64 µg/mL
2 µg/mL	65.58	–	CCCCCCCCCCCC[n+]1ccccc1.[Br-] [Compound 6d, 1-Dodecylpyridin-1-ium bromide]	–	8 µg/mL
